Active and inactive are the calls of the source.
Experiments:
[1] = molecular target: T1, Sentrin-specific protease 7 (Homo sapiens, UniProt Q9BQF6); format: functional;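 further: Luminescence-based dose-response confirmation of ultra-high-throughput screening hits, measuring inhibition of SENP7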
T1 sequence (Q9BQF6 whole entry): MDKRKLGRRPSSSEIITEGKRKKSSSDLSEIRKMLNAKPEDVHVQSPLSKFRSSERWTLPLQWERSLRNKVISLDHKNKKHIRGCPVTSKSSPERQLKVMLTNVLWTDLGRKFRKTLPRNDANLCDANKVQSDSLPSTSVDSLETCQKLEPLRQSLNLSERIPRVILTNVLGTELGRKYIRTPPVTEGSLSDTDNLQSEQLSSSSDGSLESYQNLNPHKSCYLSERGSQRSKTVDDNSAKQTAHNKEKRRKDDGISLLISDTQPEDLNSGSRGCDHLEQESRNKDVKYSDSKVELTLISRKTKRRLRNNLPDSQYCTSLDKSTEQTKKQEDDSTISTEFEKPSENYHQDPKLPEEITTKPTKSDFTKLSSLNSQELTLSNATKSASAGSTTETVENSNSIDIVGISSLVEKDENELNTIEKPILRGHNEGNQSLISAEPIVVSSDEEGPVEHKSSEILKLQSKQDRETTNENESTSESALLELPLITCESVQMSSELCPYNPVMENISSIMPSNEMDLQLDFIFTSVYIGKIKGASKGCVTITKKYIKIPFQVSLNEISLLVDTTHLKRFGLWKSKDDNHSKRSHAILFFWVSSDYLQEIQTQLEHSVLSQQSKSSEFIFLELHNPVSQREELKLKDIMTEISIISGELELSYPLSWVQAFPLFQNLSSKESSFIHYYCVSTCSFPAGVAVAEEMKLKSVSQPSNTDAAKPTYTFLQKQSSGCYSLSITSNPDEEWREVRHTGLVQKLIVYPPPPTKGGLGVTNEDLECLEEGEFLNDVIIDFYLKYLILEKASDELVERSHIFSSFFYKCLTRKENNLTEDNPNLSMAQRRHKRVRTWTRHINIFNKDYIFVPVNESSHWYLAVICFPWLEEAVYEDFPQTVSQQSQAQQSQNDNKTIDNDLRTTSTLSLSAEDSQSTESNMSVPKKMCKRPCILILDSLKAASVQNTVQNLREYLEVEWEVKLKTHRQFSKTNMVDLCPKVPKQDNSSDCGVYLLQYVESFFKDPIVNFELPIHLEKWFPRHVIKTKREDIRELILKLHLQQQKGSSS

[2] = molecular target: Bifunctional protein GlmU (Mycobacterium tuberculosis, UniProt P9WMN3); experiment: Inhibitors of Mycobacterial Glucosamine-1-phosphate acetyl transferase (GlmU). Secondary screen.; set-up: species or system Mycobacterium tuberculosis H37Rv
Chain of Bifunctional protein GlmU (P9WMN3 whole entry): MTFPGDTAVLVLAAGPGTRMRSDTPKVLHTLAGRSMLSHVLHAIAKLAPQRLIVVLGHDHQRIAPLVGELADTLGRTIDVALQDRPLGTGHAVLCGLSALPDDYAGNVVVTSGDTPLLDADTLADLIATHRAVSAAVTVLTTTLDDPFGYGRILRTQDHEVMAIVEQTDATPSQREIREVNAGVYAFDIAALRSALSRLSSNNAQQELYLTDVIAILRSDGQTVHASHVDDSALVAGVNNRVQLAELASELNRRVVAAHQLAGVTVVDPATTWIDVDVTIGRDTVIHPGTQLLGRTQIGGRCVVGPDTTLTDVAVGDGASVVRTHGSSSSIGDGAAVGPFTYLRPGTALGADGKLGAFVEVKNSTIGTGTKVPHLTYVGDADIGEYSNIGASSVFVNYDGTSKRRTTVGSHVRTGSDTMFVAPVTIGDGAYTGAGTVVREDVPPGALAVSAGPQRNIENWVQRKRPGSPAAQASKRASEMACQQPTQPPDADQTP

[3] = molecular target: Endoribonuclease toxin MazF (Escherichia coli K-12, UniProt P0AE70); experiment: MazF toxin RNase activators, dose response, biochemical, fluorescence, single-stranded RNA substrate, uHTS hits (AID 588481); format: functional
Chain of Endoribonuclease toxin MazF (P0AE70 whole entry): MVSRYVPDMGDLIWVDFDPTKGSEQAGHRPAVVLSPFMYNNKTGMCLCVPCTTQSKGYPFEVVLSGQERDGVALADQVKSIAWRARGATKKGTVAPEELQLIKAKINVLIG

Escherichia coli = experiment: microbe, parasite or virus in culture
cells = format: functional, cell-based
[4] = molecular target: T2, Serine/threonine-protein phosphatase (Candida dubliniensis (strain CD36 / CBS 7987 / NCPF 3949 / NRRLY-17841) (Yeast), UniProt B9W6M3); experiment: calcineurin pathway inhibitors in yeast reporter, dose response, S. cerevisiae, CDRE-lacZ, luminescence, secondary (AID 2388); format: functional, cell-based;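 further: yeast reporter cells carrying a calcineurin-responsive lacZ construct stimulated with calcium chloride; luminescent beta-galactosidase reporter signal in whole cells rather than isolated phosphatase activity; potency for inhibition where a drop in reporter signal means calcineurin blockade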
T2 sequence (B9W6M3 whole entry): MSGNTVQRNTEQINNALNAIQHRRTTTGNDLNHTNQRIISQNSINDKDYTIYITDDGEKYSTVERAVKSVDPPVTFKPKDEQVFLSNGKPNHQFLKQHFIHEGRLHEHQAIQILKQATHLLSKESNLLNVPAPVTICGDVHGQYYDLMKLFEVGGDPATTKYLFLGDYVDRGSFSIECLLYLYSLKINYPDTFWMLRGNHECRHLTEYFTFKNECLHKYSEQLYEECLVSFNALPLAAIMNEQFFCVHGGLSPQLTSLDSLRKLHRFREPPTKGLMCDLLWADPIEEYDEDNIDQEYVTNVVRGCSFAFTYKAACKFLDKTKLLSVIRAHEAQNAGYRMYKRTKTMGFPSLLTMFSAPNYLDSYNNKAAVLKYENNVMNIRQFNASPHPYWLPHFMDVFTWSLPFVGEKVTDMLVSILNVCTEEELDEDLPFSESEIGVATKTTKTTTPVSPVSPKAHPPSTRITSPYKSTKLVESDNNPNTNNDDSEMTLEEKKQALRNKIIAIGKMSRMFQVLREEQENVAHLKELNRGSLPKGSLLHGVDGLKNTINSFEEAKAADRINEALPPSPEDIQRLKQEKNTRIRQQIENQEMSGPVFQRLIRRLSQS

[5] = cytotoxicity toward DRD oncogenic fibroblasts, dose response, cell-based, non-viral oncogenic, luminescence (AID 1934); format: functional; settings: Homo sapiens
[6] = molecular target: ATP-dependent molecular chaperone HSP82 (Candida albicans (strain WO-1) (Yeast), UniProt C4YTQ8); experiment: loss of DOC-induced GRE-beta-galactosidase reporter signal, dose response, Hsp90 inhibitor project, S. cerevisiae, luminescence (AID 2400); format: functional, cell-based;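 further: beta-galactosidase luminescence from glucocorticoid response element reporter as proxy for Hsp90 function; inhibitor potency where signal loss means Hsp90 inhibition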
Chain of ATP-dependent molecular chaperone HSP82 (C4YTQ8 whole entry): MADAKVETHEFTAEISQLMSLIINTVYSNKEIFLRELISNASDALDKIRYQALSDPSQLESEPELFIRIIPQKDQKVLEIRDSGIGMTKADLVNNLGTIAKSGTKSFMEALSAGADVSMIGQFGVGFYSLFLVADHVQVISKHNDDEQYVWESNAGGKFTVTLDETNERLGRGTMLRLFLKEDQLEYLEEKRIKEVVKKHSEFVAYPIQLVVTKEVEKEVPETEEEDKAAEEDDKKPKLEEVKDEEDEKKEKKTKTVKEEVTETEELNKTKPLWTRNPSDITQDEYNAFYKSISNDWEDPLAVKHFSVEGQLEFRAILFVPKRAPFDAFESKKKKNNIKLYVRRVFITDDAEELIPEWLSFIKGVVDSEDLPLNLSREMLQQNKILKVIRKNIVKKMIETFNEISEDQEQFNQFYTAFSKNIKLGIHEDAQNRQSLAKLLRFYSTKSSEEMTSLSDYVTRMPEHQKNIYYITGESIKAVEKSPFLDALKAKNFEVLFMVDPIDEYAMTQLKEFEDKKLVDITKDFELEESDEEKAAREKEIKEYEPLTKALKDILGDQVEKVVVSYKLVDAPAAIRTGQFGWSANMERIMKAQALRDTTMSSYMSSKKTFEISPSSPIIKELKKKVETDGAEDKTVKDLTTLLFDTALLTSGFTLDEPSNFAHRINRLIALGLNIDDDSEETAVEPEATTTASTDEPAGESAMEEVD

[7] = molecular target: Heat shock 70 kDa protein 1A (Homo sapiens, UniProt P0DMV8); experiment: Hsp70 inhibitors, probe displacement, primary screen, biochemical, fluorescence polarization (AID 583)
Chain of Heat shock 70 kDa protein 1A (P0DMV8 whole entry): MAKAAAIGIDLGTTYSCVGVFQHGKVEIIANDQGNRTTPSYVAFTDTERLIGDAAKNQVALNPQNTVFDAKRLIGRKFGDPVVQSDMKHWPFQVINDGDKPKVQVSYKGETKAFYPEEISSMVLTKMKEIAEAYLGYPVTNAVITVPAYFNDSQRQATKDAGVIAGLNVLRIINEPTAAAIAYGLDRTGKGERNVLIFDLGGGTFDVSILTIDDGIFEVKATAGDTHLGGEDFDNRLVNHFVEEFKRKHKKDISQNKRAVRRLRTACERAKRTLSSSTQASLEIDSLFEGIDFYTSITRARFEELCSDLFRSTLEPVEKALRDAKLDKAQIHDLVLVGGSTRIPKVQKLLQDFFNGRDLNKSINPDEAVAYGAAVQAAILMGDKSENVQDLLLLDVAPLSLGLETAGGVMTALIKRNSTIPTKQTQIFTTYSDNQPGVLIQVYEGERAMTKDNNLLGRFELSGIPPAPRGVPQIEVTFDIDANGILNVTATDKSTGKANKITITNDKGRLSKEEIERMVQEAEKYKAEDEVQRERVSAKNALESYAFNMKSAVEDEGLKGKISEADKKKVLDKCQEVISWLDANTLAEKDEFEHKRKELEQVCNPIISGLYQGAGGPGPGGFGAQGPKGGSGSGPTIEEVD

[8] = molecular target: T3, Neuropeptide Y receptor type 2 (Homo sapiens, UniProt P49146); experiment: Fluorescence-based cell-based high-throughput dose response assay for agonists of NPY-Y2. [Related pubchem assays: 1703 (Screening assay (CNGC inhibitors).), 1359 (Screening assay (NPY-Y2 potentiators or agonists).), 1304 (Screening assay (NPY-Y1 potentiators or agonists).), 1710 (Screening assay (NPY-Y2 agonists).), 1791 (Summary AID.)]; format: functional
T3 sequence (P49146 whole entry): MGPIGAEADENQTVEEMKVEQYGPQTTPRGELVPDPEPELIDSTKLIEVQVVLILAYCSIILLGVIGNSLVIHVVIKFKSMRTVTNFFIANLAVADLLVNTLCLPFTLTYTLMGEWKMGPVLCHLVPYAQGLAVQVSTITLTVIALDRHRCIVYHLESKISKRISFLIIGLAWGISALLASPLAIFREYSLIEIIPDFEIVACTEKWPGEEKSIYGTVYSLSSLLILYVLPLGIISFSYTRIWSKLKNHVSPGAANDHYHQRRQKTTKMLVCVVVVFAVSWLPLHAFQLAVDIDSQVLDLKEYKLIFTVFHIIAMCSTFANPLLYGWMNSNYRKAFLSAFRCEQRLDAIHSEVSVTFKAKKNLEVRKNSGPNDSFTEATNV

[9] = molecular target: T4, Calpain-2 catalytic subunit (Sus scrofa, UniProt P43367); experiment: pig calpain II inhibitor potency, dose response, biochemical, fluorogenic peptide substrate (AID 1420); format: functional
T4 sequence (P43367 whole entry): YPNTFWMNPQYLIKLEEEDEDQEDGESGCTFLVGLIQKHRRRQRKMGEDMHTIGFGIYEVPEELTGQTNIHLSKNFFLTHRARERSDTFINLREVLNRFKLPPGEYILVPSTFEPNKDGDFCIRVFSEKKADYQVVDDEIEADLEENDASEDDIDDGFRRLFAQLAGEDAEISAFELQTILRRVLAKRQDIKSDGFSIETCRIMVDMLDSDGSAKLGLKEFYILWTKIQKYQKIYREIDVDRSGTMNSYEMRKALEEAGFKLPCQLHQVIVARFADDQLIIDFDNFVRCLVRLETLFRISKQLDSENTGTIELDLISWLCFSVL

N#Cc1c(N2CCCCC2)nc(N)c2c(N)nc(SCC(=O)O)cc12
IC50 [1]: 11.8 µM (active)

O=[N+]([O-])c1ccc(Sc2cccc[n+]2[O-])c2nonc12
IC50 [2]: 72.6 µM (active)
EC50 [3]: > 99 µM (inactive)
AC50 (Escherichia coli): 8.5 µM (active)

CCCC(=O)NC(c1ccc(C(C)C)cc1)c1ccc2cccnc2c1O (stereo unspecified)
EC50 (cells): > 350 µM (not active)
EC50 [4]: > 180 µM (inactive)
EC50 [5]: 2.35 µM (active)
EC50 [6]: > 160 µM (inactive)

Oc1c(Cl)cc(Cl)c(Cl)c1Cc1c(O)c(Cl)cc(Cl)c1Cl [HEXACHLOROPHENE]
IC50 [7]: 19.5 µM (active)
EC50 [8]: > 11.8 µM (not active)
IC50 [9]: 3.73 µM (active)

From ChEMBL document CHEMBL1201862, “PubChem BioAssay data set” (2004)
